Values of other authors as cited in patent US20110294879A1, “METHOD OF TREATMENT OF FRAGILE X SYNDROME, DOWN'S SYNDROME, AUTISM AND RELATED DISORDERS” (XENOPORT, INC., priority 2010, published 2011).

Experiments:
[1] = test system: subjects with FXS and comorbid autistic disorder
[2] = test system: Fmr KO mice; settings: Bear et al patents
[3] = humans
[4] = test system: autistic children

Structure (SMILES): CC(=O)NCCCS(=O)(=O)O [CAMPRAL, acamprosate calcium]
- adverse GI events ([1]; fragile X subjects treated in the study): observed in the majority of fragile X subjects
- Clinical Global Impression (CGI-I) ([1]; subjects with FXS and comorbid autistic disorder, Erickson et al 2010): significant symptomatic improvements

Structure (SMILES): Cc1cccc(C#Cc2ccccc2)n1 [MPEP, 2-methyl-6-(phenylethynyl)-pyridine]
- behavioral and developmental phenotypes [2]: reverse behavioral and developmental phenotypes

Structure (SMILES): CC(=O)NCCCS(=O)(=O)O [acamprosate, 3-(Acetylamino)propylsulfonic acid]
- oral bioavailability [3]: about 11%

Structure (SMILES): Cc1nc2n(c(=O)c1CCN1CCC(c3noc4cc(F)ccc34)CC1)CCCC2 [risperidone]
- social isolation and communication [4]: not improved
- irritability subscale of the Aberrant Behavior Checklist and Clinical Global Impressions-Improvement ([4]; McCracken et al 2002): significant improvement
